Converted amounts (≈) assume the structure as drawn.
Legend:
MRSA (2658 RCMB) = experiment: MIC against MRSA (2658 RCMB), broth dilution; assay type: cell-based, Staphylococcus aureus; conditions: Staphylococcus aureus; Table 7; initial screening, MRSA (2658 RCMB); read-out: minimum inhibitory concentration (MIC)
In short: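 Broth dilution in cation-adjusted Mueller-Hinton broth with an inoculum of about 5×10^5 CFU/mL (from a 0.5 McFarland suspension), using triplicate serial dilutions. MIC was the lowest concentration with no visible growth by visual inspection, reported as the mean of triplicates.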

MRSA (USA300) = experiment: Time-kill assay; assay type: cell-based, Staphylococcus aureus; conditions: 3.0×MIC
Description: Aliquots (100 μL) were taken from each sample after 2, 4, 6, 8, 10, 12, and 24 hours, serially diluted in phosphate-buffered saline, and transferred to Trypticase soy agar (TSA) (Becton, Dickinson and Company, Sparks, Md., USA) plates. Plates were incubated at 37° C. for at least 16 hours before counting viable CFU/mL to determine the time required to reduce the bacterial cell count by 3-log10.

S. aureus ATCC 6538 = experiment: MIC/MBC S. aureus strains (Table 8); assay type: cell-based; conditions: Staphylococcus aureus, ATCC6538
Description: (§1) A bacterial solution equivalent to 0.5 McFarland standard was prepared and diluted in cation-adjusted Mueller-Hinton broth (CAMHB) to achieve a bacterial concentration of about 5×10^5 CFU/mL and seeded in 96-well plates. Enterococcus faecium was diluted in brain heart infusion broth. Enterococcus faecalis, Streptococcus pneumonia and Listeria monocytogenes were diluted in tryptone soya broth (TSB).

S. aureus NRS107 = experiment: MIC/MBC S. aureus strains (Table 8); assay type: cell-based, Staphylococcus aureus; conditions: Staphylococcus aureus; Table 8; S. aureus NRS107
Description: as §1

[1] = system: Cephalosporin-resistant Streptococcus pneumoniae ATCC 51916; experiment: MIC/MBC Gram-positive pathogens (Table 9); assay type: cell-based; conditions: ATCC51916
Description: as §1

[2] = system: Enterococcus faecalis ATCC 51299 (VRE); experiment: MIC/MBC Gram-positive pathogens (Table 9); assay type: cell-based; conditions: Table 9, Enterococcus faecalis ATCC 51299 (VRE)
Description: as §1

[3] = system: Methicillin-resistant Streptococcus pneumoniae ATCC 700677; experiment: MIC/MBC Gram-positive pathogens (Table 9); assay type: cell-based; conditions: ATCC700677
Description: as §1

MRSA USA400 (NRS123) = experiment: Multi-step resistance selection experiment; assay type: cell-based, Staphylococcus aureus; conditions: MRSA USA400, sub-lethal doses, 14 daily passages
Description: To determine if MRSA would be capable of forming resistance to the compounds quickly, a multi-step resistance selection experiment was conducted, as described previously. The broth microdilution assay was utilized to determine the MIC of the tested compounds and rifampicin exposed to MRSA USA400 (NRS123) for 14 passages over a period of two weeks. Resistance was classified as a greater than four-fold increase in the initial MIC, as reported elsewhere.

[4] = system: human colorectal (Caco-2) cell; experiment: In vitro cytotoxicity against Caco-2 cells (MTS); assay type: cell-based; conditions: at 32 μg/mL
Description: Tested compounds were assayed (at concentrations of 16, 32, and 64 μg/mL) against a human colorectal (Caco-2) cell to determine the potential toxic effect to mammalian cells in vitro. Briefly, cells were cultured in Dulbecco's Modified Eagle Medium (DMEM) supplemented with 20% fetal bovine serum (FBS), non-essential amino acids (1×), and penicillin-streptomycin at 37° C. with CO2 (5%). Control cells received DMSO alone at a concentration equal to that in drug-treated cell samples. The cells were incubated with the compounds (in triplicate) in a 96-well plate at 37° C. with CO2 (5%) for two hours. The assay reagent MTS 3-(4,5-dimethylthiazol-2-yl)-5-(3-carboxymethoxyphenyl)-2-(4-sulfophenyl)-2H-tetrazolium) (Promega, Madison, Wis., USA) was subsequently added and the plate was incubated for four hours. Absorbance readings (at OD490) were taken using a kinetic microplate reader (Molecular Devices, Sunnyvale, Calif., USA). The quantity of viable cells after treatment with each compound was expressed as a percentage of the viability of DMSO-treated control cells (average of triplicate wells±standard deviation). The toxicity data was analyzed via a two-way ANOVA, with post hoc Sidak's multiple comparisons test (P<0.05), utilizing GraphPad Prism 6.0 (GraphPad Software, La Jolla, Calif.).

[5] = In vivo PK in rats after single IV bolus injection; design: species or system Sprague-Dawley (SD) rats
Description: In vivo Pharmacokinetics. Pharmacokinetic studies were performed in male naïve Sprague-Dawley (SD) rats (three animals) following Institutional Animal Care and Use Committee guidelines. An IV bolus of a 5 μM solution of compound 19 was directly administered via tail-vein injection. Blood samples were collected over a 12-hour period post dose into Vacutainer tubes containing EDTA-K2. Plasma was isolated, and the concentration of tested compounds in plasma was determined with LC/MS/MS after protein precipitation with acetonitrile. Two-compartmental pharmacokinetic analysis was performed on plasma concentration data in order to calculate pharmacokinetic parameters.

With `Cc1nc(-c2ccc(C(C)(C)C)cc2)sc1-c1ccnc(NCCN)n1` [Compound 54, N-(4-(2-(4-(tert-Butyl)phenyl)-4-methylthiazol-5-yl)pyrimidin-2-yl)ethane-1,2-diamine] the MIC (MRSA (2658 RCMB)) was 1.17 µg/mL (≈ 3.18 µM), the “bactericidal / bacteriostatic behaviour in time-kill assay, in words” value (MRSA (USA300); MRSA) was “rapid bactericidal activity” and the “time to completely eradicate the MRSA inoculum” value (MRSA (USA300); t-butyl series) was “within two to four hours”. For the same compound, the MIC (S. aureus ATCC 6538) was 4 µg/mL (≈ 10.9 µM), the MIC (S. aureus NRS107) was 4 µg/mL (≈ 10.9 µM) and the MBC [1] was 16 µg/mL (≈ 43.5 µM). It also gave an MIC [2] of 16 µg/mL (≈ 43.5 µM), an MBC ([2]; read-out: MBC) of 16 µg/mL (≈ 43.5 µM) and an MBC [3] of 16 µg/mL (≈ 43.5 µM). For the same compound, the MIC [3] was 2 µg/mL (≈ 5.44 µM), the “increase in MIC by/after the ninth passage” value (MRSA USA400 (NRS123)) was “one-fold” and the “tolerability to human colorectal cells, in words” value [4] was “highly tolerable”. The AUC [5] was 3.98 mg·h/L, the “CL (clearance)” value [5] was 1.26 L/h and the “Vdss (volume of distribution at the steady state)” value [5] was 3.39 L. The “Vβ (volume of distribution in 2nd compartment, peripheral tissues)” value [5] was 16.36 L and the “t1/2 (half-life)” value [5] was 9.03 h.

— patent US10414759B2, “Phenylthiazoles and uses thereof” (Purdue Research Foundation, priority 2017, dated 2019)
